Test system: cutaneous lesions arising from either basal cell cancer, squamous cell cancer or CMBC
Assay: Phase 1/2 dose escalation study of SnET2 PDT: lesion response
Assay type: in vivo, patients
Experimental: Two Phase 1/2 studies established the clinical dosimetry. The first study was a dose escalation study that enrolled a total of 22 patients with cutaneous lesions arising from either basal cell cancer, squamous cell cancer or CMBC. A total of 213 lesions were treated using photosensitizer SnET2) doses ranging from 0.1-1.2 mg/kg, light doses of 100, 150 or 200 J/cm^2 and treatment timepoints of 24, 48, or 72 hours post-infusion. Two key measures were utilized in these studies, lesion reaction and lesion response. Lesion reaction was an acute characterization of the treatment effect that was performed out to 1 week post-treatment according to the following scale: • Grade 0=No visual erythema or edema • Grade 1=Faint erythema and/or slight edema • Grade 2=Moderate erythema and edema • Grade 3=Severe discoloration, edema, sloughing or eschar
Beginning at one month post-treatment and then at 3 and 6 months post-treatment, a lesion response assessment was conducted according to the following scoring system: • Complete Response (complete reduction of the lesion) • Partial Response (more than 50% reduction of the lesion) • Failure (less than 50% reduction of the lesion).
Therefore, in the analysis that follows, results from all three treatment timepoints have been combined.
A similar result was observed when individual patient responses were compared. In these studies, individual patients received a single drug dose and each patient then had individual lesions treated at various light doses (100, 150, or 200 J/cm^2) and treatment timepoints (24, 48, 72 hours post-infusion). In Table 3, results for each patient treated at 0.8 mg/kg or higher are provided. In each drug dose case, individual lesions were treated at one of the three light doses and one of the three treatment timepoints, all of which have been combined for each individual patient result in the table.

[1] = 0.1 mg/kg, 100 J/cm^2, 24/48/72 h combined
[2] = 0.1 mg/kg, 150 J/cm^2, 24/48/72 h combined
[3] = 0.1 mg/kg, 200 J/cm^2, 24/48/72 h combined
[4] = 0.2 mg/kg, 100 J/cm^2, 24/48/72 h combined
[5] = 0.2 mg/kg, 150 J/cm^2, 24/48/72 h combined
[6] = 0.2 mg/kg, 200 J/cm^2, 24/48/72 h combined
[7] = 0.4 mg/kg, 100 J/cm^2, 24/48/72 h combined
[8] = 0.4 mg/kg, 150 J/cm^2, 24/48/72 h combined
[9] = 0.4 mg/kg, 200 J/cm^2, 24/48/72 h combined
[10] = 0.8 mg/kg, 100 J/cm^2, 24/48/72 h combined
[11] = 0.8 mg/kg, 100 J/cm^2, lesions scored for reaction at Week 1
[12] = 0.8 mg/kg, 150 J/cm^2, 24/48/72 h combined
[13] = 0.8 mg/kg, 150 J/cm^2, lesions scored for reaction at Week 1
[14] = 0.8 mg/kg, 200 J/cm^2, 24/48/72 h combined
[15] = 0.8 mg/kg, 200 J/cm^2, lesions scored for reaction at Week 1
[16] = 1.0 mg/kg, 100 J/cm^2, 24/48/72 h combined
[17] = 1.0 mg/kg, 100 J/cm^2, lesions scored for reaction at Week 1
[18] = 1.0 mg/kg, 150 J/cm^2, 24/48/72 h combined
[19] = 1.0 mg/kg, 150 J/cm^2, lesions scored for reaction at Week 1
[20] = 1.0 mg/kg, 200 J/cm^2, 24/48/72 h combined
[21] = 1.0 mg/kg, 200 J/cm^2, lesions scored for reaction at Week 1
[22] = 1.2 mg/kg, 100 J/cm^2, 24/48/72 h combined
[23] = 1.2 mg/kg, 100 J/cm^2, lesions scored for reaction at Week 1
[24] = 1.2 mg/kg, 150 J/cm^2, 24/48/72 h combined
[25] = 1.2 mg/kg, 150 J/cm^2, lesions scored for reaction at Week 1
[26] = 1.2 mg/kg, 200 J/cm^2, 24/48/72 h combined
[27] = 1.2 mg/kg, 200 J/cm^2, lesions scored for reaction at Week 1
[28] = patient RC004, drug dose 0.8 mg/kg, light doses and timepoints combined
[29] = patient RC005, drug dose 1.2 mg/kg, light doses and timepoints combined
[30] = patient RC006, drug dose 1.2 mg/kg, light doses and timepoints combined
[31] = patient RC007, drug dose 1.2 mg/kg, light doses and timepoints combined
[32] = patient SC001, drug dose 1.2 mg/kg, light doses and timepoints combined
[33] = patient SC002, drug dose 1 mg/kg, light doses and timepoints combined
[34] = patient SC003, drug dose 1 mg/kg, light doses and timepoints combined
[35] = patient SC004, drug dose 1 mg/kg, light doses and timepoints combined
[36] = patient SC005, drug dose 1.2 mg/kg, light doses and timepoints combined
[37] = patient WC007, drug dose 0.8 mg/kg, light doses and timepoints combined
[38] = patient WC008, drug dose 0.8 mg/kg, light doses and timepoints combined
[39] = patient WC009, drug dose 1.2 mg/kg, light doses and timepoints combined
[40] = patient WC010, drug dose 1.2 mg/kg, light doses and timepoints combined

Substance: tin ethyl etiopurpurin [SnET2]
- Complete Responders [1]: 0
- Partial Responders [1]: 0
- Response Rate (%) [1]: 0%
- Total Responders [1]: 0
- Complete Responders [2]: 0
- Partial Responders [2]: 0
- Response Rate (%) [2]: 0%
- Total Responders [2]: 0
- Complete Responders [3]: 0
- Partial Responders [3]: 0
- Response Rate (%) [3]: 0%
- Total Responders [3]: 0
- Complete Responders [4]: 0
- Partial Responders [4]: 1
- Response Rate (%) [4]: 50%
- Total Responders [4]: 1
- Complete Responders [5]: 0
- Partial Responders [5]: 0
- Response Rate (%) [5]: 0%
- Total Responders [5]: 0
- Complete Responders [6]: 0
- Partial Responders [6]: 0
- Response Rate (%) [6]: 0%
- Total Responders [6]: 0
- Complete Responders [7]: 0
- Partial Responders [7]: 0
- Response Rate (%) [7]: 0%
- Total Responders [7]: 0
- Complete Responders [8]: 0
- Partial Responders [8]: 0
- Response Rate (%) [8]: 0%
- Total Responders [8]: 0
- Complete Responders [9]: 0
- Partial Responders [9]: 0
- Response Rate (%) [9]: 0%
- Total Responders [9]: 0
- lesions with responses (0.8 mg/kg or higher): 95 of 102
- Complete Responders [10]: 9
- Partial Responders [10]: 2
- Response Rate (%) [10]: 78%
- Total Responders [10]: 11
- % Responders [11]: 79%
- Total Responders [11]: 11
- Complete Responders [12]: 8
- Partial Responders [12]: 5
- Response Rate (%) [12]: 87%
- Total Responders [12]: 13
- % Responders [13]: 87%
- Total Responders [13]: 13
- Complete Responders [14]: 12
- Partial Responders [14]: 1
- Response Rate (%) [14]: 87%
- Total Responders [14]: 13
- % Responders [15]: 87%
- Total Responders [15]: 13
- Complete Responders [16]: 3
- Partial Responders [16]: 0
- Response Rate (%) [16]: 100%
- Total Responders [16]: 3
- % Responders [17]: 100%
- Total Responders [17]: 3
- Complete Responders [18]: 4
- Partial Responders [18]: 1
- Response Rate (%) [18]: 100%
- Total Responders [18]: 5
- % Responders [19]: 100%
- Total Responders [19]: 5
- Complete Responders [20]: 8
- Partial Responders [20]: 0
- Response Rate (%) [20]: 100%
- Total Responders [20]: 8
- % Responders [21]: 100%
- Total Responders [21]: 8
- Complete Responders [22]: 5
- Partial Responders [22]: 7
- Response Rate (%) [22]: 100%
- Total Responders [22]: 12
- % Responders [23]: 100%
- Total Responders [23]: 6
- Complete Responders [24]: 7
- Partial Responders [24]: 9
- Response Rate (%) [24]: 100%
- Total Responders [24]: 16
- % Responders [25]: 100%
- Total Responders [25]: 9
- Complete Responders [26]: 11
- Partial Responders [26]: 3
- Response Rate (%) [26]: 100%
- Total Responders [26]: 14
- % Responders [27]: 100%
- Total Responders [27]: 7
- response rate of individual patients (all patients at 0.8 mg/kg or higher, with the exception of one patient dosed at 0.8 mg/kg): 100%
- response at the drug dose threshold and greater (at about 0.5 to about 0.8 mg/kg and greater (1.2 mg/kg)): good responses were observed
- threshold dose for lesion response (dose escalation 0.1-1.2 mg/kg): 0.8 mg/kg
- response below the drug dose threshold (doses below about 0.5 to about 0.8 mg/kg): no response was observed
- Lesions Responded (doses less than 0.8 mg/kg): 1 of 111
- influence of light dose and treatment timepoint (light doses 100 to 200 J/cm^2, timepoints 24 to 72 hours post administration): did not indicate significant differences
- variation in response with treatment timepoint (light given at 24, 48 or 72 hours after administration): minimal variation in response with treatment timepoint
- % Lesions Responded [28]: 74%
- Lesions Responded [28]: 20
- % Lesions Responded [29]: 100%
- Lesions Responded [29]: 6
- % Lesions Responded [30]: 100%
- Lesions Responded [30]: 1
- % Lesions Responded [31]: 100%
- Lesions Responded [31]: 3
- % Lesions Responded [32]: 100%
- Lesions Responded [32]: 4
- % Lesions Responded [33]: 100%
- Lesions Responded [33]: 6
- % Lesions Responded [34]: 100%
- Lesions Responded [34]: 6
- % Lesions Responded [35]: 100%
- Lesions Responded [35]: 4
- % Lesions Responded [36]: 100%
- Lesions Responded [36]: 6
- % Lesions Responded [37]: 100%
- Lesions Responded [37]: 9
- % Lesions Responded [38]: 100%
- Lesions Responded [38]: 8
- % Lesions Responded [39]: 100%
- Lesions Responded [39]: 20
- % Lesions Responded [40]: 100%
- Lesions Responded [40]: 2

— patent publication US20220184034A1, “METHODS FOR TREATING CUTANEOUS METASTATIC CANCERS” (Adgero Biopharmaceuticals Holdings, Inc., priority 2020, published 2022)
